Source: patent US6627732B1, “Glutathione derivatives and their dosage forms” (Teijin Limited, priority 1998, dated 2003)

Key:
[1] = system: rabbit models of suppressed hematopoietic function by CP administration; assay: Recovery of neutrophil counts in rabbit models of suppressed hematopoietic function by cyclophosphamide (Example 29); assay type: in vivo; details: CP rabbits; 20 mg/kg-body weight/day, days 3 to 7; Example 4 in fat emulsion, Comparative Example 1 in HPCD solution
From the text: Regarding the effect of promoting the recovery of neutrophil counts in rabbit models of suppressed hematopoietic function by cyclophosphamide (hereinafter referred to as CP) administration, the pharmaceutical composition comprising the fat emulsion containing the glutathione derivative of Example 4 of the present invention and the pharmaceutical composition of the conventional technology of Comparative Example 1 were compared.
(§1) (1) Animals used and the keeping condition: Male Japanese white rabbits, 17-week old, (Kbl:JW) purchased from Kitayama Labes Co., Ltd. were used. The animal feed (LRC4, manufactured by Oriental Yeast Co., Ltd.) and drinking water (well water treated with 0.4±0.2 ppm hypochlorous acid) were given ad libitum during the period of the experiment. The animals were each housed in a hanging-type rat cage (manufactured by Nippon Cage K.K.) and kept at a temperature of 24±2° C. and a humidity of 55±5%.
(2) Creation of rabbit models of suppressed hematopoietic function by CP administration; CP (manufactured by Wako Pure Chemicals Industries, Ltd.) was intravenously administered at 60 mg/kg-body weight/day (dosage volume was 2 ml/kg-body weight) to rabbits described in (1) on day 1 and 2 of the experiment. […] Blood was also drawn before the administration on day 1 of the experiment, and the value determined for the blood was used as the pre-administration value. […]

[2] = Intravenous administration of high dosages, local reaction; assay type: in vivo; details: high dosages administered intravenously
IL-1β = assay: Plasma level of IL-1β in normal healthy rats (ELISA); assay type: in vivo, rat; details: fat emulsion 20 mg/kg-body weight/day, days 3, 5 and 7
From the text: , plasma obtained form the EDTA-2K-treated blood on days 3, 5, and 7 of the experiment was used to determine plasma levels of interleukin 1β (hereinafter referred to as IL-1β) and tumor necrosis factor (hereinafter referred to as TNFα). For the determination, the rat IL-1β-ELISA system (manufactured by Amersham Pharmacia Biotek Co., Ltd.), the rat TNFα-ELISA system (manufactured by Amersham Pharmacia Biotek Co., Ltd.), and the BioRad microplate reader (MODEL550, Nippon BioRad laboratories, Co., Ltd.).

normal healthy rats = assay: Neutrophil counts and bone marrow cells in normal healthy rats (Example 28); assay type: in vivo, rat
Description: The effects of increasing neutrophil counts of the compound of Example 4 in normal healthy rats were studied.
as §1, with “(1)” for “(1) Animals used and the keeping condition:”, “SD rats, 6-week” for “Japanese white rabbits, 17-week”, “old,” for “old, (Kbl:JW)”, “Nippon SLC” for “Kitayama Labes Co., Ltd.”, “(MF,” for “(LRC4,”
(2) The glutathione derivative of Example 4 combined with the fat emulsion at 10, 20, or 30 mg/kg-body weight/day, and the fat emulsion alone as the negative control were each repeatedly administered into the tail vein for 6 days from day 1 to 6 of the experiment. Dosage was 10 ml/kg-body weight/day. From day 1 to 10 of the experiment, blood was drawn everyday from the jugular vein and the EDTA-2K-treated blood was obtained. Then the blood was used to determine the neutrophil counts using a general chemistry test instrument (Technicon H-1E, manufactured by Bayer-Sankyo K.K.).
Part of the negative control group on days 1, 7, and 10, and part of the Example 4—the fat emulsion 30 mg/kg-body weight/day administration group on days 3, 5, 7, and 10 of the experiment were bled to death from the abdominal aorta under anesthesia by the intraperitoneal administration of pentobarbital sodium. Then, the femoral bone marrow was harvested, smears were prepared therefrom using the wedge method, stained by the May-Giemsa stain, and examined under a microscope to determine the fractionation of nucleated bone marrow cells.

[3] = Fat emulsion: particle distribution and content after 1.2 μm filtration (Examples 17, 18); assay type: physicochemical; details: final concentration about 1 mg/ml
Description: Preparation of the fat emulsion having as an active ingredient the glutathione derivative of Example 4 was carried out using a high-pressure injection type homogenizer.
(1) The high-pressure injection type homogenizer used was Nanomizer LA from Nanomizer K.K. Purified yolk lecithin, purified soybean oil, and glycerin used were those that can be intravenously injected.
(2) Purified yolk lecithin 6 g and purified soybean oil 55 g were mixed by a mixer while heating to homogeneity. To this was added 560 mg of the glutathione derivative of Example 4 and was further stirred to homogeneity. A suitable amount of glycerin and water for injection were added and rough-emulsified by a mixer, and pH was adjusted to 7.4 with an aqueous solution of sodium hydroxide. Water was further added to a total amount of 560 g, which was pure-emulsified using the Nanomizer LA at an emulsification pressure of 550 kgf/cm^2 by passing it through the emulsion part for 11 times. […]
When the emulsion was crushed with tetrahydrofuran before and after filtration with a 1.2 μm filter and the content of the glutathione derivative of Example 4 was measured by HPLC, it was confirmed that the content of 90% or more of that before filtration was retained, homogeneity was good, and the glutathione derivative of Example 4 was stably mixed in the oil phase emulsion particles. […]

| Content after filtration with a 1.2 μm filter ([3]; alcohol solution mixed with water for injection) [%] | Behaviour on mixing alcohol solution with water for injection [3] | Structure (SMILES) | Neutrophil counts compared to the negative control group [1] | Local reaction at the site of administration [2] | Plasma level of IL-1β relative to the negative control group (IL-1β) | Neutrophil counts in the peripheral blood relative to the negative control group (normal healthy rats; fat emulsion 30 mg/kg-body weight/day iv, days 1-6, days 2 and 5-8, significance 5%-1%) | Neutrophilic myelocytic cells having the dividing ability in bone marrow (normal healthy rats; fat emulsion 30 mg/kg-body weight/day, days 3 and 5) | Neutrophilic myelocytic cells having no dividing ability in bone marrow (normal healthy rats; fat emulsion 30 mg/kg-body weight/day, maximum on day 7) |
| --- | --- | --- | --- | --- | --- | --- | --- | --- |
| – | – | CCOC(=O)[C@@H](N)CCC(=O)N[C@@H](CSCc1ccccc1)C(=O)N[C@@H](C(=O)OCC)c1ccccc1.Cl [Comparative Example 1, Glu(Cys(Bzl)-D-Phg-O(Et))-O(Et)hydrochloride, reference compound] | no changes were observed | can cause inflammation at the site of administration | – | – | – | – |
| ≤ 75 | immediately crystallized | CCCCCCCCCCCCCCCCOC(=O)[C@@H](N)CCC(=O)N[C@@H](CSCc1ccccc1)C(=O)N[C@@H](C(=O)OCC)c1ccccc1.Cl [Example 4, Glu(Cys(Bzl)-D-Phg-OEt)-O(Hexadecyl)hydrochloride] | statistically significant increase in neutrophil counts | – | No increases | statistically significant increase in the neutrophil counts | increased | increases were observed on day 5, 7, and 10 |
